Experimental findings from patent publication US20100075993A1, “SMALL MOLECULE INHIBITORS AGAINST WEST NILE VIRUS REPLICATION” (DREXEL UNIVERSITY, priority 2005, published 2010) are described below.

Where only a bound is given, the exact number is not on record here.

The subject of series [1] is WNV replicon. The series is described as follows: WNV replicon luciferase assay in BHK 26.5 cells (HTS, re-test, IC50). In kind it is cell-based, West Nile virus. The method, then:
Ten micromolar concentrations of a selected compound were incubated with BHK 26.5 cells expressing luciferase whose activity is dependent upon WNV replicon replication (FIG. 1A). Primary “hits” were defined by the ability to reduce the amount of luciferase enzyme activity by more than 50%, compared to controls.
To quantify and rank the activity of the 23 remaining compound “hits”, a serial dilution of each compound was incubated with WNV replicon cells to determine the concentration that inhibits 50% of the luciferase readout (IC50s). […] A number of compounds had significant effect only at the highest, 10 μM concentration. However, several compounds had IC50s between 2 and 5 (Table 3), which is very reasonable for primary HTS hits from a compound library. Only a few compounds could cause 90% inhibition in the replicon cells at the concentrations tested.
(§1) Replicon-harboring cells were plated 96-well plates at 10,000 cells per well in MEM plus 3% FBS. 24 hours after plating, compounds were added to the wells by a Robotic liquid handler (Biomek NX) to a final concentration of 10 μM and 1% DMSO. For each 96 well plate, A1 to A8 were left open, H1 to H4 contained 1% DMSO, H5-H8 contained Mycophenolic acid (Sigma-Aldrich, St. Louis, Mo.), which was included as positive controls. After 24 hours of treatment, the media were removed and the luciferase activity expressed in the replicon cells was quantified. When cyto-toxicity was measured, duplicate 96 well plates were plated with BHK 26.5 replicon cells. One plate was used for luciferase assay and one plate was used for measuring toxicity using MTT assay.
Luciferase assay was performed by using the STEADY GLO reagent (Promega Corp. Madison, Wis.) according to the manufacturer's recommendation with slight modifications. Briefly, the culture media from the 96 wells were removed by dumping on paper towels.
100 μl of a 1:1 mixture of luciferase regent and culture media were added to the plate. After 5-minute incubation, the luminescence was read on a TOPCOUNT (PerkinElmer, Wellesley, Mass.).

The test system of series [2] is BHK 26.5 replicon cells. The series is described as follows: MTT toxicity assay on BHK 26.5 replicon cells. In kind it is cell-based.
From the text: The HTS strategy follows the flowchart outlined in FIG. 2. 35,000 compounds were screened from a chemical library described below, using a cutoff of 50% reduction in luminescence readout as the criteria for further study. Upon completion of the screen, approximately 1100 compounds were selected, making the hit rate of 3%. This is considerably higher than expected, implying many false positive and/or cytotoxic compounds. Nevertheless, the compounds were picked out from the “daughter” plates and re-checked at a single 10 μM concentration. In addition, a duplicate 96 well plates were also plated and the toxicity of the compounds was determined in an MTT assay. Upon completion of these assays, most compounds were disqualified as either false positives or being toxicity to cells. As a result, only a small number of compounds were further analyzed directly from the “mother” plate stock. After IC50 determination and secondary assay to rule out luciferase inhibitors, 23 “hits” were identified.
as §1
(§2) Compound toxicity was determined by MTT assay. For the MTT assay, the cell medium was removed and the monolayers were incubated with 100 μl/well of 0.5 mg/ml MTT for 6 h at 37° C. The MTT solution was then aspirated and 100 μl/well of the 10% SDS (in 0.01N HCl) was added, followed by spectrophotometric quantitation (570 nm) of the insoluble MIT reaction product.

Series [3] is described as follows: toxicity (MTT, CC50) in BHK cells parallel to WNV infection assay. The settings on record: hamster; highest concentration used 40 μM. It counts as cell-based. The method, then: (§3) Several of these original compounds selected from the WNV replicon based screen were evaluated in an antiviral assay against WNV live virus. […] Modifications of this compound would be further investigated
(§4) The toxicity of 101-G7 was also measured by MTT assay and CC50 was calculated. 40 μM is highest concentration used.
as §2

The subject of series [4] is BHK cells. Described as above. The settings on record: MTT assay, 40 μM highest concentration used; read-out: Tox CC50. It counts as cell-based. The method, then: as §3, §4, §2
Series [5] has as its system WNV. The series is described as follows: WNV yield reduction assay (live virus) on BHK cells. It counts as cell-based, West Nile virus. The method, then:
The antiviral assay for the 309-F6 compounds was conducted on BHK cells. The virus produced in the presence of 1% DMSO or various concentrations of compounds was tittered on Vero cells. The amount of virus relative to the 1% DMSO control was plotted on the y-axis; the concentration of the compound 309F6 is shown in μM on the x-axis. Data from two independently treated wells (Test 1 and Test 2) are shown.
To measure activity against live WNV, BHK cells were plated in 96-well plates at a concentration of 12,000 cells/well. One day later the cells were infected with WNV for 1 h at an MOI of 0.05. The cells were then washed once and re-fed with fresh DMEM containing dilutions of the test compound. Plates were then incubated at 37° C. for 48 h, the supernatant collected and the WNV produced titered. For virus titration, Vero cells were plated in 96-well plates at 8000 cells/well and incubated overnight. The Vero cell monolayer were then infected for 1 h with various dilutions of the WNV supernatant, overlaid with media containing 0.6% tragacanth (ICN, CA) and incubated at 37° C. for 48 h. The culture media was then aspirated; the plate was rinsed, air-dried, and fixed with 50 μl/well acetone/methanol (50:50). Viral foci were detected for enumeration by immunostaining as described previously (15).

The test system of series [6] is WNV NS3 protein. Briefly: Western blot of WNV protein in compound treated replicon cells. The following applies: 48-hour treatment, up to 10 uM; MPA 2.5 ug/ml. In kind it is cell-based, West Nile virus. The method, then: Mycophenolic acid (MPA) was used as positive control in the experiment. 4×10^4 cells were seeded in 24 well plates 24 hours before the various concentrations of compounds were added. After 48 hours of drug treatment, SDS-Sample buffer were added to the wells to lyse the cells. The protein samples were separated on SDS-PAGE and transferred to PVDF membrane. Viral protein was detected by probing with a monoclonal antibody against WNV. The same membrane was stripped and probed for beta-actin with the signals shown at the bottom of the blot.
Although it is reassuring that multiple tests have yielded similar positive results, the ability of the compounds to inhibit WNV replication was further assessed in secondary assays. In the western blot analysis shown in FIG. 5, total cell proteins were prepared from WNV replicon cells treated with the hit compounds and the viral protein NS3 was detected with a monoclonal […] against West Nile virus (15). The same blots were stripped and probed for beta-actin to show equal loading. […] When compared with the IC50 determined for these compounds in the luciferase assay, there was a good correlation between the luciferase reduction and the viral protein reduction.
Total cell lysates from replicon cells were harvested from replicon cells in 1×SDS sample buffer. The lysates were heated at 70° C. for 10 min in the presence of DTT before electrophoresis on a 10% Tris-glycine SDS polyacrylamide gel (Invitrogen) in 1× Tris-glycine buffer. The protein was transferred to PVDF (Invitrogen) membrane. Following the transfer, the membrane was rinsed once with TBS containing 0.5% Tween-20 (TBS-Tween) and blocked in TBS-Tween containing 5% non-fat milk for 1 h. After washing with PBS-Tween, the membrane was incubated with the primary WNV antibody (15) at 1:3000 dilutions for 1 h at 25° C. Prior to incubation with HRP conjugated-mouset IgG secondary antibody (Amersham, Life Science, Piscataway, N.J.) diluted 1:5000, the blot was washed in PBS-Tween. Following the secondary antibody incubation, the blot was washed again and treated with Super Signal Chemiluminescent Reagent (Pierce) according to the manufacturer's protocol and exposed to X-ray film. For controls, the blots were stripped and re-probed with an antibody to beta-actin (Chemicon), which was detected with a goat anti-mouse horseradish peroxidase conjugate.

Series [7] deals with WNV RNA. The series is described as follows: Northern blot of WNV RNA in compound treated replicon cells. It counts as cell-based, West Nile virus. The following applies: 48-hour treatment, compounds 10 μM, MPA 2.5%. The method, then:
FIG. 6 is a picture of a Northern blot gel of compound treated WNV replicon cells. 4×10^4 cells were seeded in 24 well plates. After 24 hours, the cells were treated with DMSO (lanes 2, 3) or the non-specific inhibitors, MPA (lane 1) or the compounds […] (lane 4), 18-B3 (lane 5) or 52-F2 (lane 6). After 48 hours, total RNA were isolated, separated on denaturing agrose gels and transferred to nylon membrane. Total RNA from a non-replicon cell (Huh-7 cell) was loaded in lane 7 as negative control. The membrane was probed with [^32P]-dCTP-labeled WNV NS5 and human beta-actin. The signal was quantified using a BioRad phosphoimager and WNV RNA level was calculated using beta-actin as a reference.
To confirm that the compounds can indeed inhibit WNV RNA replication, the WNV RNA level in the replicon cells treated with compounds by Northern blot analysis. Several hit compounds, 18-B3, 275-F9, 275-D9, 52-F2 and MPA were selected to treat the BHK 26.5 cells at 10 μM. […] The “hit” compounds 18-B3 and 275-F9 reduced WNV RNA by 1.5 and 2 fold, respectively (FIG. 6, lanes 4, 5). 18-B3 is one of the nine compounds that have similar structures while 275-F9 is one from another class of four compounds (Table 3).
Total cellular RNA was extracted by using the RNEASY kit (Qiagen NV, Netherlands). Northern blot analysis was done according to the protocol of Gu et al. 2002 (8). Briefly, 5 μg total RNA was electrophoresed through a 1.0% agarose gel containing 2.2M formaldehyde, transferred to a nylon membrane and immobilized by UV cross-linking (Stratagene, La Jolla, Calif.). After pre-hybridization in 5 ml of QuickHyb (Amersham, Piscataway, N.J. GE Healthcare, Giles, UK), [2P] dCTP-labeled probe made by random primer labeling of a 2.7 kb NS5 DNA fragment and a human beta-actin DNA at 65° C. The membrane was washed twice in 2×SSC/0.1% SDS for 10 min at room temperature and twice in 0.1×SSC/0.1% SDS for 15 min at 68° C. Membranes were exposed to Molecular Imager FX phosphoimager (BioRad, Hercules, Calif.) and the radiographic signals were collected and quantitated.

Series [8] deals with T1, luciferase enzyme (Photinus pyralis, UniProt P08659).
T1 construct: expressed in transfected cells; host or cells: BHK 26.5 (BHK cells harbouring the WNV subgenomic replicon with the Luc gene); used as cell lysate
The series is described as follows: in vitro luciferase enzyme assay with cell lysates. In kind it is biochemical. The settings on record: lysate of WNV replicon cell, 30 minutes incubation, up to 10 μM. The method, then:
In two separate experiments, compounds were either tested with 3, 5, 10 μM or only 10 μM concentrations. The luciferase enzyme cell lysates were incubated with the indicated compounds for 30 minutes before luciferase substrate was added and the luminescence was measured. 1% DMSO was used as controls.
Although the initial HTS and the repeat assays have identified a number of compounds capable of reducing the luciferase activity produced in the WNV replicon BHK 26.5 cell line. It is conceivable that some of these inhibitors could have inhibited the luciferase enzyme itself rather than the WNV viral replication. To rule out this possibility, the identified compounds were tested in an in vitro luciferase enzyme assay by incubating the compounds with cell lysates prepared from the WNV replicon cell. […] The inhibition was not observed when the compounds were added immediately before luminescence reading, but after a 30-minute incubation of […] and the cell lysate, indicating a direct inhibition of the luciferase enzyme by the compounds.

T1 sequence (P08659 whole entry): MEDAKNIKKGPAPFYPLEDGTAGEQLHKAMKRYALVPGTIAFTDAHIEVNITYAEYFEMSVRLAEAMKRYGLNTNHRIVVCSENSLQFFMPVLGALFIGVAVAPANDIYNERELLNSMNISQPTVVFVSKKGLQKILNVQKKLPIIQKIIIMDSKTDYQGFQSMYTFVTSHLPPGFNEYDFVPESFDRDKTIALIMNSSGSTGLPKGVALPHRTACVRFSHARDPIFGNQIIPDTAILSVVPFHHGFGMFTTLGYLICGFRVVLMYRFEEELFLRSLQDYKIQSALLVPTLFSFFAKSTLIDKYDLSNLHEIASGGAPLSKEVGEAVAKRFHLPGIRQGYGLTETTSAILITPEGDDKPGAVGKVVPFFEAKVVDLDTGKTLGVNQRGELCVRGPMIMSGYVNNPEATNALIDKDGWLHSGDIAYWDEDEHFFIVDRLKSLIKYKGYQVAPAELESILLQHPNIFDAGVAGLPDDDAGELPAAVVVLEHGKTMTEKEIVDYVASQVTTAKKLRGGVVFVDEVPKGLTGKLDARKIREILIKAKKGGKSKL

In the case of `Cc1ccc(-c2csc(Nc3ccc(S(=O)(=O)Nc4cc(C)on4)cc3)n2)cc1` [Compound 101-G7, N-(5-Methyl-isoxazol-3-yl)-4-(4-p-tolyl-thiazol-2-ylamino)-benzenesulfonamide], the IC50 in series [1] (West Nile virus, 24 h) was 5 µM; in series [5] (West Nile virus, BHK, read-out: IC50 in WNV infection assay, re-synthesized, three independent experiments in duplicate), 3 to 15 µM. Moreover, the “Fold decrease (HTS)” value in series [1] (luciferase activity, 10 μM compound, 24 hours, BHK 26.5 cells) worked out at 6 Fold. Also, the “Fold decrease (Re-test)” value in series [1] (luciferase activity, re-checked at a single 10 μM concentration) is listed as 2 Fold. In addition, the “reducing the luciferase activity of the WNV replicon cell” value in series [1] (re-synthesized compound, 24 and 48 hour incubation) was “good activity”. In series [2] (MTT assay), the “Toxicity (uM)*” value is over 10 µM. In addition, in series [2] (re-synthesized compound, MTT), the “toxicity in replicon assays” value is given as “about 80 μM”. Moreover, the CC50 in series [3] and in series [4] was over 40 µM each time. For the same compound, the “activity in the WNV infection assay” value in series [5] (live WNV) is “retained activity”.
Consider `COc1c(C)c2c(c(O)c1C/C=C(\C)CCC(=O)O)C(=O)OC2` [MPA, Mycophenolic acid, reference compound], for which, in series [6], the “WNV NS3 protein level (western blot)” value was “reduced WNV NS3 protein level”. The “WNV RNA reduction” value in series [7] is “more than five fold”. Also, the “luciferase enzyme activity in cell lysate” value in series [8] is “did not reduce the luciferase activity”.
